Measured values from patent publication US20090010888A1, “Use of cytochrome P450 reductase as insecticidal target” (priority 2004, published 2009).
Several values for one entry are separate records, joined by “and”; a condition that tells them apart may be missing. Equal entries are not always repeated. Where two headings read alike, the source gives them in different places.

Columns and labels:
[1] = target: T1, human CPR (Homo sapiens, UniProt P16435); experiment: Cytochrome c reduction by purified human CPR (inhibition and kinetics); type: biochemical; details: for IC50: 25° C., 50 μM cytochrome c, 15 μM NADPH
T1 sequence (P16435 43-677 limits assumed): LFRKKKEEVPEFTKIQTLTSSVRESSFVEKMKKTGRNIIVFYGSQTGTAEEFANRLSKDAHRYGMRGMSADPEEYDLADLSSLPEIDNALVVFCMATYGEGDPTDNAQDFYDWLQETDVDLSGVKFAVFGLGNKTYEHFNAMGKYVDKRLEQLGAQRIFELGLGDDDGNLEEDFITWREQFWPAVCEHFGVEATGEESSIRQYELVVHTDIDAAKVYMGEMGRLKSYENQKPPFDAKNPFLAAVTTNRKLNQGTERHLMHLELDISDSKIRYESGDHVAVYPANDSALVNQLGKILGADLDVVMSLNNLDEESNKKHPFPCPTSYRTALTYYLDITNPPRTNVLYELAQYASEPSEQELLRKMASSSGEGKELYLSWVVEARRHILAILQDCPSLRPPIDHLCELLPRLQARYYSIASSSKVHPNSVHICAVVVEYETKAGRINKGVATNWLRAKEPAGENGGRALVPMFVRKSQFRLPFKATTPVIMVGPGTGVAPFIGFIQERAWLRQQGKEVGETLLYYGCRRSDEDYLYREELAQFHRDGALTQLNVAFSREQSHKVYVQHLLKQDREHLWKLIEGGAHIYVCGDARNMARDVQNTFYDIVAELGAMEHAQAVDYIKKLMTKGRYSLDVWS
Protocol: (§1) Errors are deviation from the fit of the curve (GraFit 5.06).
(§2) Cytochrome c assays and enzyme kinetic measurements were carried out 25° C. as described^19, using 0.75 pmol purified AgCPR or hCPR. Apparent kinetic parameters (non-linear fitting: Michaelis-Menten equation) and IC50 values were calculated using GraFit version 5.06.

[2] = target: T2, A. gambiae CPR (Anopheles gambiae, UniProt Q86QH5, H459Y/V230A); experiment: 2′-5′-ADP Sepharose binding of CPR from whole fly extracts; details: crude extracts of A. gambiae
Protocol: 0.1 g of frozen adult A. gambiae or D. melanogaster flies were added to a pre-chilled mortar and ground to a powder in the presence of liquid nitrogen. The powder was transferred to a 50 ml Falcon tube and 2.5 mls of cold solubilisation buffer (20 mM Tris-Cl pH 8; 10% glycerol; 100 mM KCl and 20 mM CHAPS) added. The suspensions were mixed on a rotary wheel at 4° C. for 2 hrs to solubilise the membrane bound proteins, then centrifuged (5 min; 12,000 rpm; 4° C.) to clarify. […] The clarified whole fly protein extracts were applied to the column and the flow-through collected. The column was washed with 5 ml of solubilisation buffer to remove non-binding proteins. To elute the bound proteins, 3×200 μl of 50 mM 2′ AMP in 0.5×solubilisation buffer was added to the mini-columns, and the 3×200 μl elution fractions collected in Eppendorf tubes. To detect CPR, 25 μl each of solubilised pre-column extract (total fly protein); flow through (unbound protein) and eluted proteins were run on a NuPAGE 4-12% Bis-Tris Gel (Invitrogen; UK) and transferred onto Protran® nitrocellulose membrane (Schleicher & Schuell; Germany) according to the manufacturer's instructions. The membrane was blocked overnight at 4° C. in TBST & 5% milk powder, then incubated for 1 hr with a 1:10000 dilution of anti-Ag CPR primary antibody. […]

[3] = target: T3, human CYP3A4 and human CPR (Homo sapiens, UniProt P16435)
T3 sequence (P16435 1-677): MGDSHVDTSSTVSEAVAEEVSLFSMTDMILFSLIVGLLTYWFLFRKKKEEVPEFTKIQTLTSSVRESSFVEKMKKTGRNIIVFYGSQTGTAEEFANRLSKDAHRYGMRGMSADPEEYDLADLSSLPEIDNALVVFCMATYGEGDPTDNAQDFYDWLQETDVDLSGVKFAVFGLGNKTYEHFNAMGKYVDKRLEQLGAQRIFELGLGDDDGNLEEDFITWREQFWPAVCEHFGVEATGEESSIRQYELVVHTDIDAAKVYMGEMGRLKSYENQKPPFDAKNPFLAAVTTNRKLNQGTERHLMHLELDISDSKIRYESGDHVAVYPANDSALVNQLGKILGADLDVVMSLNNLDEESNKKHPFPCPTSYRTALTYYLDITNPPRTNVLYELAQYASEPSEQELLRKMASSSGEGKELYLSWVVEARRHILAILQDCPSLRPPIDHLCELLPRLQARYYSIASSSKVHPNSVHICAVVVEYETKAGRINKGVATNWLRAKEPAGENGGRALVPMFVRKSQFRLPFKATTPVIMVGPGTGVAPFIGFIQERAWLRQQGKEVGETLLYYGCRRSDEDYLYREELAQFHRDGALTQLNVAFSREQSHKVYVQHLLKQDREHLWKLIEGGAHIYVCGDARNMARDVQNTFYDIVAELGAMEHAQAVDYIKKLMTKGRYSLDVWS
Protocol: (§3) Measurement of P450 activity was carried out using E. coli membranes coexpressing A. gambiae CYP6Z2 and AgCPR or human CYP3A4 and human CPR. […] Rates were recorded for 5 min at 37° C. using a fluorescence plate reader (Labsystems Fluoroskan Ascent-FL) set to measure λEx 530 λEm585 (BR assay) or λEx 405 λEm530 (BQ assay). Percentage activities were calculated and IC50 curves were plotted using GraFit version 5.
(§4) For P450 assays, E. coli membranes co-expressing human CYP3A4 and CPR were produced as described. […] Plates were preincubated for 5 min at 37° C. before addition of 5 μl of 5 mM NADPH. Rates were recorded for 5 min at 37° C. using a fluorescence plate reader (Labsystems Fluoroskan Ascent-FL) set to measure λEx 530 λEm585 (BR assay) or λEx 405 λEm530 (BQ assay).
(§5) Percentage activities were calculated and IC50 curves were plotted using GraFit version 5.

[4] = tested on: A. gambiae CYP6Z2 and AgCPR; experiment: 7-benzyloxyresorufin (BR) dealkylation, E. coli membranes coexpressing CYP6Z2 and AgCPR; details: read-out: IC50 for inhibition of mosquito CYP6Z2 BR dealkylation; 5 μM BR, 125 microM NADPH, 37° C.
Protocol: as §3, §4, §5

[5] = target: T2, A. gambiae CPR; experiment: biochemical; type: biochemical
Protocol: as §1, §2

T2 sequence (Q86QH5 entry or part of it V230A/H459Y): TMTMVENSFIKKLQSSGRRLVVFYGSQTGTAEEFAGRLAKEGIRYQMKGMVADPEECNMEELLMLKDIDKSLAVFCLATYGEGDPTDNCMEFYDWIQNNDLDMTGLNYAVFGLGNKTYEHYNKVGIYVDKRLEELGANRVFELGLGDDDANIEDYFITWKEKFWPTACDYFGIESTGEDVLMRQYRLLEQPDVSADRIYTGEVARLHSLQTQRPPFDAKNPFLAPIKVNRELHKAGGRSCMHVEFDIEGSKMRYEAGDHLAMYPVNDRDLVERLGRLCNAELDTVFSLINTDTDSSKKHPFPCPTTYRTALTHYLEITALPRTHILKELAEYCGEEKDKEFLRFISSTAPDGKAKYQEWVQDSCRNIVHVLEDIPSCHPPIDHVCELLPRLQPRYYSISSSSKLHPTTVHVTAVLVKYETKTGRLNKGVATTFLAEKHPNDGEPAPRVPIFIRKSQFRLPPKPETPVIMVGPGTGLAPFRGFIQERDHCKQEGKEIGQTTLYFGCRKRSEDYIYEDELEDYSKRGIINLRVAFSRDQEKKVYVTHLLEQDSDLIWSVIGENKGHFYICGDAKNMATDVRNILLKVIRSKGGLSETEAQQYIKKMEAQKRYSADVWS

With 2′,5′-ADP [2′-5′-ADP] the IC50 ([1]; human CPR) was 28 µM, the “binding of CPR to 2′-5′-ADP (Sepharose)” value [2] was “does not bind” and the IC50 [3] was 10 µM. For the same compound, the IC50 [4] was 234 µM.

For `c1ccc([I+]c2ccccc2)cc1` [DPI, diphenyliodonium chloride], the IC50 ([1]; human CPR) was 361 µM and the IC50 [5] was 28 µM.

`NC(=O)C1=CN([C@@H]2O[C@H](COP(=O)(O)OP(=O)(O)OC[C@H]3O[C@@H](n4cnc5c(N)ncnc54)[C@H](OP(=O)(O)O)[C@@H]3O)[C@@H](O)[C@H]2O)C=CC1` [NADPH, reduced form of nicotinamide adenine dinucleotide phosphate] was tested, and the Km ([1]; human CPR, read-out: Km NADPH (apparent)) was 14 µM and 15 µM and the Km ([5]; read-out: Km NADPH (apparent)) was 30 µM.

With cytochrome c the Km ([1]; human enzyme, read-out: Km cytc) was 19 µM and the Km ([5]; mosquito enzyme, read-out: Km cytc) was 23 µM.
